This passage reports activation results from PubChem BioAssay AID977605 (Broad Institute, 2014).

The source made the active and inactive calls.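 Rule for the calls: active = fitted curve reaches 40% activation below the top valid tested dose, in every test run; inconclusive = test runs disagree on the call; inactive = the rest, including effects opposite to the expected direction.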

A short description of one assay: E-selectin inducers in HUVECs, dose response, imaging, HUVEC, cherry-picked samples (AID 977605).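 Note: signal is the share of imaged cells scored positive for E-selectin.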 The conditions noted are these: HUVEC E-selectin immunostaining, at 18 µM (top of the series), percent of TNF-alpha response over vehicle.
With `C[C@@H]1CN([C@H](C)CO)C(=O)c2cccc(NC(=O)CCCCCC(=O)Nc3ccccc3N)c2O[C@H]1CN(C)Cc1ccc2c(c1)OCO2`, the activation is 0.253% (inactive).

Still in this assay, the particulars now being: HUVEC E-selectin immunostaining, at 19.5 µM (top of the series).
Turning to `NC(C(=O)O)c1cc(=O)[nH]o1` (stereo unspecified), the activation is 0.044% (inactive).

Regarding `Cc1ccc(-c2nc3ccccc3c(=O)n2-c2cccc(O)c2)cc1`, the activation is 0.249% (inactive).

The assay is the same for the next values; noted with them: HUVEC E-selectin immunostaining, at 19.5 µM (top of the series), percent of TNF-alpha response over vehicle.
In the case of `CCN(CC)CCN(C(=O)Cn1nnc(-c2ccc(C)o2)n1)C(C(=O)NC(C)(C)C)c1cccs1` (stereo unspecified), the activation was -0.044% (inactive).

With `CC(C)NC(=O)N(C)C[C@H]1Oc2ccc(NC(=O)CCC(F)(F)F)cc2CC(=O)N([C@H](C)CO)C[C@@H]1C`, the activation is -0.115% (inactive).

`C[C@@H]1CN([C@H](C)CO)C(=O)c2cc(NC(=O)CCC(F)(F)F)ccc2O[C@@H]1CN(C)Cc1ccc(C(F)(F)F)cc1`: the activation was 0.048% (inactive).

Regarding `CO[C@H]1CN(C)C(=O)c2cc(NC(=O)Nc3ccc(Cl)cc3)ccc2OC[C@H](C)NC[C@H]1C`, the activation is 0.158% (inactive).

Turning to `C[C@@H]1CN([C@@H](C)CO)C(=O)c2cc(NC(=O)Cn3cnnn3)ccc2O[C@H]1CN(C)Cc1ccc(Oc2ccccc2)cc1`, the activation was 6.68% (inactive).

In the case of `C[C@H](CO)N1C[C@H](C)[C@@H](CN(C)S(C)(=O)=O)Oc2ccc(NS(=O)(=O)c3cccs3)cc2C1=O`, the activation was -0.072% (inactive).

Take `Cc1cccc(CC(=O)c2c[nH]c3ccccc23)c1`: the activation is -0.07% (inactive).

In the case of `CCCCC1C(=O)N(c2ccccc2)N(c2ccc(O)cc2)C1=O` (stereo unspecified), the activation is -0.246% (inactive).

Consider `C[C@@H]1CN([C@H](C)CO)C(=O)c2cc(N(C)C)ccc2O[C@H]1CN(C)S(=O)(=O)c1cn(C)cn1`, for which the activation was -0.007% (inactive).

Turning to `CC(C)NC(=O)N(C)C[C@H]1Oc2c(NC(=O)c3ccc(-c4nccs4)cc3)cccc2C(=O)N([C@@H](C)CO)C[C@H]1C`, the activation was 2.24% (inactive).

For `C[C@H]1CN([C@@H](C)CO)C(=O)Cc2cc(NS(=O)(=O)c3ccccc3)ccc2O[C@H]1CN(C)Cc1ccc(C(F)(F)F)cc1`, the activation is 10.6% (inactive).

Take `Cc1ccccc1CCN1CCCC(CN(C)C(=O)c2ccc3ncccc3c2)C1` (stereo unspecified): the activation was 36.6% (inactive).

As for `COc1ccc(C)cc1NC(=O)C(NCC(O)c1ccccc1)c1ccccc1` (stereo unspecified), the activation was -0.094% (inactive).

Turning to `C[C@@H]1CN([C@H](C)CO)C(=O)c2cc(NC(=O)Cn3cnnn3)ccc2O[C@@H]1CN(C)S(=O)(=O)c1ccccc1`, the activation was 0.017% (inactive).

Consider `C[C@@H]1CN([C@H](C)CO)C(=O)Cc2cc(NC(=O)c3ccncc3)ccc2O[C@H]1CN(C)S(C)(=O)=O`, for which the activation is -0.058% (inactive).

Regarding `COc1ccccc1CN1CC(C(=O)N(C)Cc2[nH]c3ccccc3c2C)CCC1=O` (stereo unspecified), the activation is 0.071% (inactive).

Regarding `C[C@@H]1CN([C@H](C)CO)C(=O)c2cccc(NC(=O)C3CC3)c2O[C@@H]1CN(C)CC1CC1`, the activation was -0.106% (inactive).

As to `Cc1cc(NC(=O)CCC(=O)N(c2ccccc2)C(C(=O)NC2CCCC2)c2ccc(F)cc2)no1` (stereo unspecified), the activation was 0.168% (inactive).

Regarding `C[C@@H]1CN([C@@H](C)CO)C(=O)c2cc(NC(=O)NC3CCCCC3)ccc2O[C@@H]1CN(C)Cc1ccc2c(c1)OCO2`, the activation is -0.021% (inactive).

As for `COc1ccc(S(=O)(=O)Nc2ccc3c(c2)CC(=O)N([C@H](C)CO)C[C@@H](C)[C@H](CN(C)C(=O)NC2CCCCC2)O3)cc1`, the activation was -0.114% (inactive).

For `CCOC(=O)C1CCCN(C(=O)c2cc(S(=O)(=O)N(C)C)ccc2N2CCCC2)C1` (stereo unspecified), the activation was 0.51% (inactive).

Consider `COc1ccc(CCNS(=O)(=O)c2ccc3c(c2)NC(=O)CS3)cc1OC`, for which the activation was -0.024% (inactive).

Consider `Cc1noc(C)c1NC(=O)N(C)C[C@H]1Oc2ccc(NC(=O)c3ccncc3)cc2C(=O)N([C@H](C)CO)C[C@@H]1C`, for which the activation is -0.129% (inactive).

As for `O=C(CCCn1c(=O)c2ccccc2n(CC(=O)N2CCN(c3ccccc3)CC2)c1=O)NCc1ccco1`, the activation is -0.084% (inactive).

As to `C/C(=N\NC(=O)C1CC1)c1ccc(Cl)cc1`, the activation was -0.246% (inactive).

For the molecule `C[C@@H]1CN([C@@H](C)CO)C(=O)Cc2cc(NC(=O)c3ccncc3)ccc2O[C@H]1CN(C)Cc1ccc(Oc2ccccc2)cc1`, the activation was 0.031% (inactive).

Take `C[C@H]1CN([C@@H](C)CO)C(=O)Cc2cc(NS(=O)(=O)c3ccc(F)cc3)ccc2O[C@@H]1CN(C)S(=O)(=O)c1ccc(Cl)cc1`: the activation is -0.047% (inactive).

For `C[C@H]1CN([C@@H](C)CO)C(=O)Cc2cc(NS(=O)(=O)c3ccc(F)cc3)ccc2O[C@H]1CN(C)S(=O)(=O)c1ccc(Cl)cc1`, the activation is -0.018% (inactive).

For the molecule `COc1cccc(C(=O)Nc2cc(C)c3c(=O)oc4ccccc4c3n2)c1`, the activation was 2.1% (inactive).

With `OC(COC(c1ccccc1)c1ccccc1)CN1CCOCC1` (stereo unspecified), the activation was 2% (inactive).

Turning to `C[C@H](CO)N1C[C@H](C)[C@H](CN(C)S(=O)(=O)c2cccs2)Oc2c(NC(=O)Nc3ccccc3)cccc2C1=O`, the activation is 1% (inactive).

`CC(C)NC(=O)Nc1cccc2c1O[C@@H](CN(C)Cc1ccc(C(F)(F)F)cc1)[C@@H](C)CN([C@H](C)CO)C2=O`: the activation is 0.009% (inactive).

`COc1ccc(NC(=O)Nc2ccc3c(c2)C(=O)N([C@H](C)CO)C[C@H](C)[C@@H](CN(C)Cc2ccncc2)O3)cc1`: the activation was 4.31% (inactive).

As to `C[C@H]1CN([C@@H](C)CO)C(=O)c2cc(NS(C)(=O)=O)ccc2O[C@@H]1CN(C)Cc1ccc(Cl)c(Cl)c1`, the activation is -0.025% (inactive).

As to `C[C@@H]1CN([C@H](C)CO)S(=O)(=O)c2ccc(-c3ccc(F)cc3)cc2O[C@@H]1CN(C)CC1CC1`, the activation is 0.158% (inactive).

As to `CCNS(=O)(=O)c1ccc(CCC(=O)N2CCN(c3ccc(OC)cc3)CC2)cc1`, the activation is -0.027% (inactive).

In the case of `COc1ccc(NC(=O)N(C)C[C@H]2Oc3ccc(NC(=O)c4ccncc4)cc3CC(=O)N([C@H](C)CO)C[C@H]2C)cc1`, the activation was -0.01% (inactive).

The assay is the same for the next values; noted with them: HUVEC E-selectin immunostaining, at 21 µM (top of the series), percent of TNF-alpha response over vehicle.
On to `COc1ccc(S(=O)(=O)Nc2cccc3c2O[C@H](CN(C)C(=O)Nc2c(C)noc2C)[C@@H](C)CN([C@@H](C)CO)C3=O)cc1`, for which the activation was -0.092% (inactive).

In the case of `C[C@H](CO)N1C[C@H](C)[C@H](CN(C)S(=O)(=O)c2ccc(Cl)cc2)Oc2ccc(NC(=O)Nc3ccc(F)cc3)cc2CC1=O`, the activation is 0.805% (inactive).

Take `C[C@@H]1CN([C@@H](C)CO)C(=O)c2cc(NC(=O)CCCCCC(=O)Nc3ccccc3N)ccc2O[C@H]1CN(C)C(=O)Nc1ccc2c(c1)OCO2`: the activation is 0.05% (inactive).

On to `C[C@@H]1CN([C@@H](C)CO)C(=O)c2cc(NC(=O)CCN3CCOCC3)ccc2O[C@H]1CN(C)Cc1ccncc1`, for which the activation was -0.05% (inactive).

Regarding `CC(C)NC(=O)N(C)C[C@@H]1Oc2c(NC(=O)c3ccc(-c4nccs4)cc3)cccc2C(=O)N([C@@H](C)CO)C[C@@H]1C`, the activation is -0.199% (inactive).

On to `Cc1noc(C)c1S(=O)(=O)Nc1ccc2c(c1)C(=O)N([C@H](C)CO)C[C@@H](C)[C@H](CN(C)Cc1ccncc1)O2`, for which the activation is -0.191% (inactive).
